Source: ChEMBL document CHEMBL2417379, “Anti-inflammatory and anti-apoptotic effects of (RS)-glucoraphanin bioactivated with myrosinase in murine sub-acute and acute MPTP-induced Parkinson's disease” (Bioorg Med Chem, 2013)
Calls of active or inactive are those of the source. No cut-off for these calls is given here.

Key:
Mus musculus [1] = assay: Antiapoptotic activity against DA neurons in C57BL/6 mouse acute MPTP-induced parkinson's disease model assessed as reduction in Bax expression at 10 mg/kg, ip administered for 1 week prior to MPTP challenge measured after 8 days by immunohistochemistry relative to untreated control; type: functional, organism-based; set-up: dose 10 mg/kg
Mus musculus [2] = assay: Neuroprotective activity in C57BL/6 mouse acute MPTP-induced parkinson's disease model assessed as increase in BDNF expression in brain at 10 mg/kg, ip administered for 1 week prior to MPTP challenge by immunohistochemistry; type: functional, organism-based; set-up: dose 10 mg/kg
Mus musculus [3] = assay: Neuroprotective activity in C57BL/6 mouse sub-acute MPTP-induced parkinson's disease model assessed as latency time at 10 mg/kg, ip administered for 1 week prior to MPTP challenge by open field test relative to vehicle-treated control; type: functional; settings: route intraperitoneal
Mus musculus [4] = assay: Neurotoxicity in C57BL/6 mouse assessed as nitrotyrosine localization in substantia nigra pars compacta at 10 mg/kg, ip by immunohistochemistry; type: toxicity, organism-based; set-up: dose 10 mg/kg, route intraperitoneal; settings: in vivo
Mus musculus [5] = assay: Antiapoptotic activity against DA neurons in C57BL/6 mouse acute MPTP-induced parkinson's disease model assessed as protection against neuronal functional disruption at 10 mg/kg, ip administered for 1 week prior to MPTP challenge by golgi staining-based microscopic analysis relative to untreated control; type: organism-based; set-up: dose 10 mg/kg
Mus musculus [6] = assay: Antiinflammatory activity against C57BL/6 mouse acute MPTP-induced parkinson's disease model assessed as reduction in cytosolic GFAP localization in brain at 10 mg/kg, ip administered for 1 week prior to MPTP challenge by immunohistochemistry relative to untreated control; type: functional, organism-based; set-up: dose 10 mg/kg
Mus musculus [7] = assay: Antiapoptotic activity against DA neurons in C57BL/6 mouse acute MPTP-induced parkinson's disease model assessed as increase in Bcl2 expression at 10 mg/kg, ip administered for 1 week prior to MPTP challenge measured after 8 days by immunohistochemistry relative to untreated control; type: functional, organism-based; set-up: dose 10 mg/kg
Mus musculus [8] = assay: Neuroprotective activity in C57BL/6 mouse acute MPTP-induced parkinson's disease model assessed as preservation of neurological behavioural changes at 10 mg/kg, ip administered for 1 week prior to MPTP challenge measured for 3 mins by open field test relative to vehicle-treated control; type: functional, organism-based; set-up: dose 10 mg/kg
Mus musculus [9] = assay: Neurotoxicity in C57BL/6 mouse assessed as basal GAP-43 expression in brain at 10 mg/kg, ip by immunohistochemistry; type: toxicity, organism-based; set-up: dose 10 mg/kg, route intraperitoneal; settings: in vivo
Mus musculus [10] = assay: Neurotoxicity in C57BL/6 mouse assessed as Nrf2 localization in brain at 10 mg/kg, ip by immunohistochemistry; type: toxicity, organism-based; set-up: dose 10 mg/kg, route intraperitoneal; settings: in vivo
Mus musculus [11] = assay: Neuroprotective activity in C57BL/6 mouse acute MPTP-induced parkinson's disease model assessed as increase in TH protein expression in striatum at 10 mg/kg, ip administered for 1 week prior to MPTP challenge measured after 8 days by immunohistochemistry relative to untreated control; type: functional, organism-based; set-up: dose 10 mg/kg
Mus musculus [12] = assay: Antiinflammatory activity against C57BL/6 mouse acute MPTP-induced parkinson's disease model assessed as reduction in nitrotyrosine localization in substantia nigra pars compacta at 10 mg/kg, ip administered for 1 week prior to MPTP challenge by immunohistochemistry relative to untreated control; type: functional, organism-based; set-up: dose 10 mg/kg
Mus musculus [13] = assay: Antiinflammatory activity against C57BL/6 mouse sub-acute MPTP-induced parkinson's disease model assessed as increase in Nrf2 localization in brain at 10 mg/kg, ip administered for 1 week prior to MPTP challenge by immunohistochemistry relative to untreated control; type: functional, organism-based; set-up: dose 10 mg/kg
Mus musculus [14] = assay: Antiapoptotic activity against C57BL/6 mouse sub-acute MPTP-induced parkinson's disease model assessed as protection against neuronal functional disruption at 10 mg/kg, ip administered for 1 week prior to MPTP challenge by golgi staining-based microscopic analysis relative to untreated control; type: organism-based; set-up: dose 10 mg/kg
Mus musculus [15] = assay: Antiparkinsonian activity in C57BL/6 mouse acute MPTP-induced parkinson's disease model assessed as reduction in MPTP-induced change in body weight at 10 mg/kg, ip administered for 1 week prior to MPTP challenge relative to control; type: functional, organism-based; set-up: dose 10 mg/kg
Mus musculus [16] = assay: Antiinflammatory activity against C57BL/6 mouse acute MPTP-induced parkinson's disease model assessed as increase in Nrf2 localization in brain at 10 mg/kg, ip administered for 1 week prior to MPTP challenge by immunohistochemistry relative to untreated control; type: functional, organism-based; set-up: dose 10 mg/kg
Mus musculus [17] = assay: Neuroprotective activity in C57BL/6 mouse acute MPTP-induced parkinson's disease model assessed as increase in NGF expression in brain at 10 mg/kg, ip administered for 1 week prior to MPTP challenge by immunohistochemistry; type: functional, organism-based; set-up: dose 10 mg/kg
Mus musculus [18] = assay: Neuroprotective activity in C57BL/6 mouse sub-acute MPTP-induced parkinson's disease model assessed as increase in NGF expression in brain at 10 mg/kg, ip administered for 1 week prior to MPTP challenge by immunohistochemistry; type: functional, organism-based; set-up: dose 10 mg/kg
Mus musculus [19] = assay: Toxicity in C57BL/6 mouse assessed as faster drop time at 10 mg/kg, ip by pole test; type: organism-based; set-up: dose 10 mg/kg, route intraperitoneal; settings: in vivo
Mus musculus [20] = assay: Antiinflammatory activity against C57BL/6 mouse acute MPTP-induced parkinson's disease model assessed as reduction in IL-1beta localization in brain at 10 mg/kg, ip administered for 1 week prior to MPTP challenge measured after 8 days by immunohistochemistry relative to untreated control; type: functional, organism-based; set-up: dose 10 mg/kg
Mus musculus [21] = assay: Neuroprotective activity in C57BL/6 mouse acute MPTP-induced parkinson's disease model assessed as prevention of loss of DA transporter expression in substantia nigra at 10 mg/kg, ip administered for 1 week prior to MPTP challenge by immunohistochemistry; type: functional, organism-based; set-up: dose 10 mg/kg
Mus musculus [22] = assay: Antiinflammatory activity against C57BL/6 mouse sub-acute MPTP-induced parkinson's disease model assessed as reduction in cytosolic GFAP localization in brain at 10 mg/kg, ip administered for 1 week prior to MPTP challenge by immunohistochemistry relative to untreated control; type: functional, organism-based; set-up: dose 10 mg/kg
Mus musculus [23] = assay: Neuroprotective activity in C57BL/6 mouse sub-acute MPTP-induced parkinson's disease model assessed as increase in GAP-43 expression in brain at 10 mg/kg, ip administered for 1 week prior to MPTP challenge by immunohistochemistry; type: functional, organism-based; set-up: dose 10 mg/kg
Mus musculus [24] = assay: Antiapoptotic activity against DA neurons in C57BL/6 mouse sub-acute MPTP-induced parkinson's disease model assessed as increase in Bcl2 expression at 10 mg/kg, ip administered for 1 week prior to MPTP challenge measured after 8 days by immunohistochemistry relative to untreated control; type: functional, organism-based; set-up: dose 10 mg/kg
Mus musculus [25] = assay: Neurotoxicity in C57BL/6 mouse assessed as IL-1beta localization in brain at 10 mg/kg, ip measured after 8 days by immunohistochemistry; type: toxicity, organism-based; set-up: dose 10 mg/kg, route intraperitoneal; settings: in vivo, 192 h
Mus musculus [26] = assay: Neuroprotective activity in C57BL/6 mouse sub-acute MPTP-induced parkinson's disease model assessed as prevention of loss of DA transporter expression in substantia nigra at 10 mg/kg, ip administered for 1 week prior to MPTP challenge by immunohistochemistry; type: functional, organism-based; set-up: dose 10 mg/kg
Mus musculus [27] = assay: Neurotoxicity in C57BL/6 mouse assessed as TH protein expression in striatum at 10 mg/kg, ip measured after 8 days by immunohistochemistry; type: toxicity, organism-based; set-up: dose 10 mg/kg, route intraperitoneal; settings: in vivo, 192 h
Mus musculus [28] = assay: Neurotoxicity in C57BL/6 mouse assessed as basal NGF expression in brain at 10 mg/kg, ip by immunohistochemistry; type: toxicity, organism-based; set-up: dose 10 mg/kg, route intraperitoneal; settings: in vivo
Mus musculus [29] = assay: Neurotoxicity in C57BL/6 mouse assessed as reduction of DA transporter expression in substantia nigra at 10 mg/kg, ip by immunohistochemistry; type: toxicity, organism-based; set-up: dose 10 mg/kg, route intraperitoneal; settings: in vivo
Mus musculus [30] = assay: Neuroprotective activity in C57BL/6 mouse sub-acute MPTP-induced parkinson's disease model assessed as bewilderment at 10 mg/kg, ip administered for 1 week prior to MPTP challenge by pole test relative to untreated control; type: functional, organism-based; set-up: dose 10 mg/kg
Mus musculus [31] = assay: Toxicity in C57BL/6 mouse assessed as Bcl2 expression in brain at 10 mg/kg, ip measured after 8 days by immunohistochemistry; type: organism-based; set-up: dose 10 mg/kg, route intraperitoneal; settings: in vivo, 192 h
Mus musculus [32] = assay: Neuroprotective activity in C57BL/6 mouse sub-acute MPTP-induced parkinson's disease model assessed as increase in BDNF expression in brain at 10 mg/kg, ip administered for 1 week prior to MPTP challenge by immunohistochemistry; type: functional, organism-based; set-up: dose 10 mg/kg
Mus musculus [33] = assay: Toxicity in C57BL/6 mouse assessed as Bax expression in brain at 10 mg/kg, ip measured after 8 days by immunohistochemistry; type: organism-based; set-up: dose 10 mg/kg, route intraperitoneal; settings: in vivo, 192 h
Mus musculus [34] = assay: Antiparkinsonian activity in C57BL/6 mouse sub-acute MPTP-induced parkinson's disease model assessed as reduction in MPTP-induced change in body weight at 10 mg/kg, ip administered for 1 week prior to MPTP challenge relative to control; type: functional, organism-based; set-up: dose 10 mg/kg
Mus musculus [35] = assay: Neuroprotective activity in C57BL/6 mouse sub-acute MPTP-induced parkinson's disease model assessed as increase in TH protein expression in striatum at 10 mg/kg, ip administered for 1 week prior to MPTP challenge measured after 8 days by immunohistochemistry relative to untreated control; type: functional, organism-based; set-up: dose 10 mg/kg
Mus musculus [36] = species: Mus musculus; assay: Antiinflammatory activity against C57BL/6 mouse sub-acute MPTP-induced parkinson's disease model assessed as reduction in nitrotyrosine localization in substantia nigra pars compacta prior to MPTP challenge by immunohistochemistry relative to untreated control; type: functional, organism-based
Mus musculus [37] = assay: Toxicity in C57BL/6 mouse assessed as change in body weight at 10 mg/kg, ip; type: organism-based; set-up: dose 10 mg/kg, route intraperitoneal; settings: in vivo
Mus musculus [38] = assay: Antiapoptotic activity against DA neurons in C57BL/6 mouse sub-acute MPTP-induced parkinson's disease model assessed as reduction in Bax expression at 10 mg/kg, ip administered for 1 week prior to MPTP challenge measured after 8 days by immunohistochemistry relative to untreated control; type: functional, organism-based; set-up: dose 10 mg/kg
Mus musculus [39] = assay: Neuroprotective activity in C57BL/6 mouse acute MPTP-induced Parkinson's disease model assessed as increase in GAP-43 expression in brain at 10 mg/kg, ip administered for 1 week prior to MPTP challenge by immunohistochemistry; type: functional, organism-based; set-up: dose 10 mg/kg
Mus musculus [40] = assay: Neurotoxicity in C57BL/6 mouse assessed as cytosolic GFAP localization in brain at 10 mg/kg, ip by immunohistochemistry; type: toxicity, organism-based; set-up: dose 10 mg/kg, route intraperitoneal; settings: in vivo
Mus musculus [41] = assay: Antiinflammatory activity against C57BL/6 mouse sub-acute MPTP-induced parkinson's disease model assessed as reduction in IL-1beta localization in brain at 10 mg/kg, ip administered for 1 week prior to MPTP challenge measured after 8 days by immunohistochemistry relative to untreated control; type: functional, organism-based; set-up: dose 10 mg/kg

C[S@@+]([O-])CCCC/C(=N/OS(=O)(=O)O)S[C@@H]1O[C@H](CO)[C@@H](O)[C@H](O)[C@H]1O (racemic)
Activity (Mus musculus [1]): Active | Activity (Mus musculus [2]): Active | Time (Mus musculus [3]): 0 min | Activity (Mus musculus [4]): Non-toxic | Activity (Mus musculus [5]): Active | Activity (Mus musculus [6]): Active | Activity (Mus musculus [7]): Active | Activity (Mus musculus [8]): Active | Activity (Mus musculus [9]): Non-toxic | Activity (Mus musculus [10]): Non-toxic | Activity (Mus musculus [11]): Active | Activity (Mus musculus [12]): Active | Activity (Mus musculus [13]): Active | Activity (Mus musculus [14]): Active | Activity (Mus musculus [15]): Active | Activity (Mus musculus [16]): Active | Activity (Mus musculus [17]): Active | Activity (Mus musculus [18]): Active | Activity (Mus musculus [19]): Non-toxic | Activity (Mus musculus [20]): Active | Activity (Mus musculus [21]): Active | Activity (Mus musculus [22]): Active | Activity (Mus musculus [23]): Active | Activity (Mus musculus [24]): Active | Activity (Mus musculus [25]): Non-toxic | Activity (Mus musculus [26]): Active | Activity (Mus musculus [27]): Non-toxic | Activity (Mus musculus [28]): Non-toxic | Activity (Mus musculus [29]): Non-toxic | Activity (Mus musculus [30]): Active | Activity (Mus musculus [31]): Non-toxic | Activity (Mus musculus [32]): Active | Activity (Mus musculus [33]): Non-toxic | Activity (Mus musculus [34]): Active | Activity (Mus musculus [35]): Active | Activity (Mus musculus [36]): Active | Activity (Mus musculus [37]): Non-toxic | Activity (Mus musculus [38]): Active | Activity (Mus musculus [39]): Active | Activity (Mus musculus [40]): Non-toxic | Activity (Mus musculus [41]): Active
